This note sets out measurements from patent US8389521B2, “Inhibitors of protein kinases” (Ingenium Pharmaceuticals GmbH, priority 2007, dated 2013).

The test system of data set [1] is Tau phosphorylation at Serin396 in differentiated SH-SY5Y cells. Put plainly: In vitro SH-SY5Y assay using tau phosphorylation. Format: cell-based, human. The conditions noted are these: RA- and BDNF-differentiated SH-SY5Y cells, 90-120 min incubation, Western Blot or ELISA. As to the method: The human neuroblastoma cell line SH-SY5Y can be utilized as an in vitro model to investigate CDK5 function and the efficacy of CDK5 specific inhibitors. SH-SY5Y cells express tau protein which harbors various phosphorylation sites known to be phosphorylated by several kinases including CDK5. SH-SY5Y cells can be differentiated into neuron-like cells by exposure to 10 μM all trans-retinoic acid for 3 days and subsequent exposure to 50 ng/ml human recombinant brain-derived neurotrophic factor for 3-5 days, thereby upregulating neuronal markers, including tau protein. In addition CDK5 and p35 protein levels were increased during differentiation. RA-BDNF-differentiated cells can therefore serve as a suitable model for studying tau phosphorylation and to screen potential CDK5 inhibitors (Jämsä et al., 2004. BBRC 319; 993-1000). […]
Concentrations of total tau, pS396 tau and pT231 tau within the cell culture lysates are measured by using commercial ELISA Kits (BioSource: human total tau: KHB0042; human pS396 tau: KHB7031; human pT231 tau: KHB7051) according to the manufacturers instructions or by using Western Blots probing with total and phospho-specific antibodies (antibodies: total tau: Santa Cruz, sc-21796; pS396 tau: Santa Cruz, sc-12414; pT231 tau, AT180: Pierce Endogen, MN1040; pS202 tau: AT8: Pierce Endogen, MN1020). […]
(In general: A western blot detects proteins with antibodies after separation by electrophoresis.)

As a reminder, the melting point is the temperature of the solid-liquid transition. The compound `COCCCNS(=O)(=O)Cc1cccc(Nc2cc(-c3ccccc3OC)ncn2)c1` [Reference Compound 3, C-{3-[6-(2-methoxy-phenyl)-pyrimidin-4-ylamino]-phenyl}-N-(3-methoxy-propyl)-methanesulfonamide] displayed a melting point of 149.2 to 150.8 °C.

On to `NS(=O)(=O)Cc1ccc(Nc2cc(-c3ccccc3OCc3ccccc3)ncn2)cc1` [Compound 8, {4-[6-(2-Benzyloxy-phenyl)-pyrimidin-4-ylamino]-phenyl}-methanesulfonamide], for which, in data set [1], the “inhibitory effect on Tau phosphorylation at Serin396” value is “significant inhibitory effect”.

Compound `CCOc1ccccc1-c1cc(Nc2ccc(CS(N)(=O)=O)cc2)ncn1` [Compound 6, {4-[6-(2-Ethoxy-phenyl)-pyrimidin-4-ylamino]-phenyl}-methanesulfonamide] showed a melting point of 213.5 to 215.1 °C.
